Like-named read-outs stand apart in the source and are kept apart here.
What was measured:
Type in all cases: cell-based
EAAT2 = molecular target: T1, EAAT2 (Homo sapiens, UniProt P43004); assay: Electrophysiology specificity experiment in transfected HEK293 cells, EAAT2; settings: apparent Ki, HEK293, internal solution 10 mM glutamate, mean ± SD; read-out: Ki EAAT2
T1 construct: expressed in transfected cells; host or cells: HEK293 (ATCC CRL-11268), transient transfection
Experimental: (§1) Human embryonic kidney 293 (HEK293, ATCC CRL-11268) cells were cultured in DMEM media supplemented with 10% (v v) fetal bovine serum (FBS), 2 mM glutamine, 1% penicillin streptomycin solution, 1 mM sodium pyruvate and non-essential amino acids. Cells were maintained at 37° C. in a fully humidified atmosphere containing 5% CO2. rASCT2, hASCT2, hASCT1, EAAT1, EAAT2, EAAC1, EAAT5 and YFP complementary DNAs were each used to transiently transfect HEK293 using POLYPLUS Jet-prime transfection reagent. Cells were analyzed using electrophysiological techniques 24-40 hours after transfection.
(§2) Stock solutions of inhibitor was prepared in dimethyl sulfoxide (DMSO) up to 100 mM. Dilutions to working concentrations were made using external buffer. […] For rASCT2, hASCT2 and hASCT1, external buffer contained 140 mM NaCl, 2 mM MgCl2, 2 mM CaCl2), and 10 mM HEPES, pH 7.40 while internal pipette solution comprised of 130 mM NaSCN, 2 mM MgCl2, 10 mM EGTA, 10 mM HEPES and 10 mM alanine, pH 7.40. For specificity experiments with EAAT1, EAAT2, EAAC1 and EAAT5, internal solution contained 10 mM glutamate instead of alanine. Compounds were applied to HEK293 cells expressing DNA of interest suspended from a current recording electrode in whole cell configuration through a rapid solution exchange device. Cells are immersed in external buffer bath used to dissolve the inhibitors. The open pipette resistance was between 3 and 6 MΩ. Series resistance was not compensated in these experiments due to relatively small currents. Currents traces were recorded using an Adams and List EPC7 amplifier and digitized using a Molecular Devices Digidata A/D converter.
(§3) Linear and nonlinear curve fitting of the experimental data were analyzed using MicroCal Origin software. Nonlinear dose-response relationships were fitted with a Michaelis-Menten-like equation to obtain apparent Ki values in the absence of substrate (see TABLE 2 for Ki values). The figures show representative current traces and dose-response curves for hACST2 and rASCT2, used to obtain Ki values in TABLE 2 for compound SN 40. At least four experiments were performed with at least three different cells. Error bars in all graphs, e.g., in FIG. 1B and FIG. 1C and tables (Ki values) represent mean±SD.

EAAC1 = molecular target: T2, EAAC1 (UniProt P51907); assay: Electrophysiology specificity experiment in transfected HEK293 cells, EAAC1; settings: apparent Ki, HEK293, internal solution 10 mM glutamate, mean ± SD
T2 construct: Ki EAAC1; other: apparent Ki, HEK293, internal solution 10 mM glutamate, mean ± SD
T2 sequence (P51907 1-523): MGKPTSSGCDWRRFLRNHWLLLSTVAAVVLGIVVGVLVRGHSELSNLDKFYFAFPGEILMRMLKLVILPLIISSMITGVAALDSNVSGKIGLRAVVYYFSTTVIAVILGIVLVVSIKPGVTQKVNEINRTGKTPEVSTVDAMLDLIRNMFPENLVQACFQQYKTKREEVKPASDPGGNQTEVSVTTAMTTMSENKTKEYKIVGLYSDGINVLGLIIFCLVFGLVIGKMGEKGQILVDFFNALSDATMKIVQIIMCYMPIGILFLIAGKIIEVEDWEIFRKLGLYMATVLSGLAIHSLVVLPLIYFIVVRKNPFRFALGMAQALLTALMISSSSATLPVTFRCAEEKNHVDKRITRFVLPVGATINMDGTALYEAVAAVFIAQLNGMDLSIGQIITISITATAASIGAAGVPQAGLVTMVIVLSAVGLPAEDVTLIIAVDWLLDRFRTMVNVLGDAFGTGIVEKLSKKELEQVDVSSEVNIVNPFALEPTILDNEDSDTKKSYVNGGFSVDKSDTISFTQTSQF
Experimental: Cells were maintained at 37° C. in a fully humidified atmosphere containing 5% CO2. rASCT2, hASCT2, hASCT1, EAAT1, EAAT2, EAAC1, EAAT5 and YFP complementary DNAs were each used to transiently transfect HEK293 using POLYPLUS Jet-prime transfection reagent. Cells were analyzed using electrophysiological techniques 24-40 hours after transfection.
as §2
as §3, with “The figures show representative current traces and dose-response curves for hACST2 and rASCT2, used to obtain Ki values in TABLE 2 for compound SN 40.” left out

EAAT5 = molecular target: T3, EAAT5 (Homo sapiens, UniProt O00341); assay: Electrophysiology specificity experiment in transfected HEK293 cells, EAAT5; settings: apparent Ki, HEK293, internal solution 10 mM glutamate, mean ± SD
T3 construct: expressed in transfected cells; host or cells: HEK293 (ATCC CRL-11268), transient transfection
T3 sequence (O00341 whole entry, species assumed): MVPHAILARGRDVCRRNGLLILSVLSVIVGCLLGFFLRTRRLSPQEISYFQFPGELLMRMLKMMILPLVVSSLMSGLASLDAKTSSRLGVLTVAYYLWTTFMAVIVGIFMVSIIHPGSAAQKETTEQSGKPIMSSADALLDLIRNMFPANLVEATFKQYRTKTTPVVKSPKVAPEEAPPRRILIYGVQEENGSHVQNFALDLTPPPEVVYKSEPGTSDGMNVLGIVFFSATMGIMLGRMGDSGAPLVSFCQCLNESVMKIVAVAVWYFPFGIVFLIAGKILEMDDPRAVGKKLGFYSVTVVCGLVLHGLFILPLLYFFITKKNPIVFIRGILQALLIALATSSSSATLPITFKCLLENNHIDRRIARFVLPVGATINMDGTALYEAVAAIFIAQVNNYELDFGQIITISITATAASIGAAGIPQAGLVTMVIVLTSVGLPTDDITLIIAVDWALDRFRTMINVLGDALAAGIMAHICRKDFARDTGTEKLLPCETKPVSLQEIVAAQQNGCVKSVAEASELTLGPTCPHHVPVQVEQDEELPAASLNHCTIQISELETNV
Experimental: as §1, §2, §3

rASCT2 [1] = molecular target: T4, rASCT2 (Rattus norvegicus, UniProt D3ZJ25); assay: Electrophysiology (whole-cell current recording) of transfected HEK293 cells, rASCT2
T4 construct: expressed in transfected cells; host or cells: HEK293 (ATCC CRL-11268), transient transfection
T4 sequence (D3ZJ25 1-555): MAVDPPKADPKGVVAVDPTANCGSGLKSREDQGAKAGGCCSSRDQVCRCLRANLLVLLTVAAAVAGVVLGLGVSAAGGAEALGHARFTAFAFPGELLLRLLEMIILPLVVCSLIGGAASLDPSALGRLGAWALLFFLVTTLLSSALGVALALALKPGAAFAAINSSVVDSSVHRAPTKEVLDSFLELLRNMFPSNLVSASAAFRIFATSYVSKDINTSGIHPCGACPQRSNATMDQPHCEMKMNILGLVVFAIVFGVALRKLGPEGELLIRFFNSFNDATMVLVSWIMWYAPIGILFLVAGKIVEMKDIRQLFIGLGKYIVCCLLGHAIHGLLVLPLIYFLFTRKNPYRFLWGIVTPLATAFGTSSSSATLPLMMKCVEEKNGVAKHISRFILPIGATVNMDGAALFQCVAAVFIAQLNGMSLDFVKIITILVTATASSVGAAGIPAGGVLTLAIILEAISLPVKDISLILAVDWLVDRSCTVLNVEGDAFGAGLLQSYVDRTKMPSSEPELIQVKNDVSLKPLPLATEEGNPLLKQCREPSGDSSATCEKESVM
Experimental: as §1, §2, §3

EAAT1 = molecular target: T5, EAAT1 (Homo sapiens, UniProt P43003); assay: Electrophysiology specificity experiment in transfected HEK293 cells, EAAT1; settings: apparent Ki, HEK293, internal solution 10 mM glutamate, mean ± SD
T5 construct: expressed in transfected cells; host or cells: HEK293 (ATCC CRL-11268), transient transfection
T5 sequence (P43003 whole entry, species assumed): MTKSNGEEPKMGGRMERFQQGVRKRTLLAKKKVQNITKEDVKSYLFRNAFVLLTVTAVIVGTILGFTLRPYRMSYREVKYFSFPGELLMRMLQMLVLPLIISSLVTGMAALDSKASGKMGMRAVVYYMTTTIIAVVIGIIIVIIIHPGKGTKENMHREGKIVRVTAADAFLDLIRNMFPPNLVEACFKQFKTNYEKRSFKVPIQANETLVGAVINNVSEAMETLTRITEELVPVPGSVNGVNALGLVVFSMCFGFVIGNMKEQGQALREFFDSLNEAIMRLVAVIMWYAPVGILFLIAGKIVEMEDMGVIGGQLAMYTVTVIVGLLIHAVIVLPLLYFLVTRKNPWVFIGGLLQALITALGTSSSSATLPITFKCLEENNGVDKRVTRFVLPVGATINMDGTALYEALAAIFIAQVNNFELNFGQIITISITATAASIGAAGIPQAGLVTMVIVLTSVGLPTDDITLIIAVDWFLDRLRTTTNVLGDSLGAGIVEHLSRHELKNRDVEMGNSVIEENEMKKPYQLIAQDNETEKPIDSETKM
Experimental: as §1, §2, §3

hASCT2 [2] = molecular target: T6, hASCT2 (Homo sapiens, UniProt Q15758); assay: Electrophysiology (whole-cell current recording) of transfected HEK293 cells, hASCT2
T6 construct: expressed in transfected cells; host or cells: HEK293 (ATCC CRL-11268), transient transfection
T6 sequence (Q15758 1-541): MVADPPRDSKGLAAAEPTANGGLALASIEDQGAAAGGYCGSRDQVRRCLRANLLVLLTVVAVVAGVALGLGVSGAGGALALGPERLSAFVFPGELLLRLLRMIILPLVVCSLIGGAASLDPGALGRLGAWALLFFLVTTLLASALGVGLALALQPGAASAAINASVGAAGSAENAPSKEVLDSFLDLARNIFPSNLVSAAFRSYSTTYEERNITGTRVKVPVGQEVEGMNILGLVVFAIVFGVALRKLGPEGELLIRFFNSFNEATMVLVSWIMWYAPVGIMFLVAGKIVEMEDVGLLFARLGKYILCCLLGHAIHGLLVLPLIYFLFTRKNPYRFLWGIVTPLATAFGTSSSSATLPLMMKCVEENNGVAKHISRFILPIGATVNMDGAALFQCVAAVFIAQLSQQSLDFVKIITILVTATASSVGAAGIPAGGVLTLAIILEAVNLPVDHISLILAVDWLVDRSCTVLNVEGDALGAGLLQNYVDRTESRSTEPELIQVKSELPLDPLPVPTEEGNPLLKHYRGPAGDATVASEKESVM
Experimental: as §1, §2, §3

rASCT2 [3] = molecular target: T4, rASCT2; assay: Competition experiment with alanine, rASCT2; settings: second entry of the cell; for Ki: read-out: Competition Expt (h/rASCT2 Ki): rASCT2 Ki
hASCT2 [4] = molecular target: T6, hASCT2; assay: Competition experiment with alanine, hASCT2; settings: first entry of the cell; for Ki: read-out: Competition Expt (h/rASCT2 Ki): hASCT2 Ki
hASCT1 = molecular target: T7, hASCT1 (Homo sapiens, UniProt P43007); assay: Electrophysiology (whole-cell current recording) of transfected HEK293 cells, hASCT1
T7 construct: expressed in transfected cells; host or cells: HEK293 (ATCC CRL-11268), transient transfection
T7 sequence (P43007 1-532): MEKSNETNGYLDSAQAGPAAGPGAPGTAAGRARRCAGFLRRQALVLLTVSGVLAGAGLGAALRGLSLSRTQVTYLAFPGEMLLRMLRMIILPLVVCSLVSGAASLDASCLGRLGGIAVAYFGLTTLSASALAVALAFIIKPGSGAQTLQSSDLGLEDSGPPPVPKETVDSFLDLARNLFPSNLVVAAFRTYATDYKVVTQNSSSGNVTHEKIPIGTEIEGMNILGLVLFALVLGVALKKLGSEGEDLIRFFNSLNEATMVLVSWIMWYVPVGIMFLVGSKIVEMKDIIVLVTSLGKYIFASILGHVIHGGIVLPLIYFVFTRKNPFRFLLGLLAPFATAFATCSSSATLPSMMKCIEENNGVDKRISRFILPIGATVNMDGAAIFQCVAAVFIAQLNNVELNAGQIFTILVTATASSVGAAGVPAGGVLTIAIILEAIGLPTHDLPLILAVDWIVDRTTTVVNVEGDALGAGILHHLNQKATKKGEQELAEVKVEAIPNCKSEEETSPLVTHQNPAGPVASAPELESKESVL
Experimental: as §1, §2, §3

[5] = apparent Ki in the absence of substrate, HEK293, mean ± SD, read-out: Ki rASCT2
[6] = apparent Ki in the absence of substrate, HEK293, mean ± SD, read-out: Ki hASCT2
[7] = Table 3, dihydroxyproline derivatives
[8] = Table 3, dihydroxyproline derivatives, read-out: Ki All DNA: hASCT1

T1 sequence (P43004 whole entry, species assumed): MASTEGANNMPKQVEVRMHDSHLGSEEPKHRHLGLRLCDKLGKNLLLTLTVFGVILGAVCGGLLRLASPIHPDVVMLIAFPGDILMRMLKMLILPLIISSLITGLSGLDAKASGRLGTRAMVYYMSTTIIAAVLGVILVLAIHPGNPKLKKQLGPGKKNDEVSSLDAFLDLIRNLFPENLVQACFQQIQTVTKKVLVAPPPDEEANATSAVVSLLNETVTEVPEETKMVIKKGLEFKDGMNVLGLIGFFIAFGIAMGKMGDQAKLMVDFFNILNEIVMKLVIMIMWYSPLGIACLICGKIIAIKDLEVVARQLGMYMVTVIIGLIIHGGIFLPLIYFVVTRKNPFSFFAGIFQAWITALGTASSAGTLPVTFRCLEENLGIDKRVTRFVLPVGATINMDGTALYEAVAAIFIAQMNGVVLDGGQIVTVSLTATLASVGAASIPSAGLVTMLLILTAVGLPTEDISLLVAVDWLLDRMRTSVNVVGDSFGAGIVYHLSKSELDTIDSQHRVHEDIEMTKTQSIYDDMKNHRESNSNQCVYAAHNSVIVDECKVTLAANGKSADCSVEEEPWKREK

Row | Structure (SMILES) | Ki (EAAT2) | Ki (EAAT5) | Ki (rASCT2 [1]; [5]) | Ki (EAAT1) | Ki (hASCT2 [2]; [6]) | Ki (hASCT1; [8]) | Competition Expt % block (given as a decimal): rASCT2 (rASCT2 [3]; 0.5 mM ala, decimal fraction) | Ki (rASCT2 [3]; 0.5 mM ala) | Competition Expt % block (given as a decimal): hASCT2 (hASCT2 [4]; 0.5 mM ala, decimal fraction) | Ki (hASCT2 [4]; 0.5 mM ala) | also measured
1 | O=C(O)[C@@H]1C[C@H](NCc2ccc(-c3ccccc3)cc2)CN1 [SN 40] | 5.55 ± 1.7 µM | 5.55 ± 0.7 µM | 7.29 ± 1.8 µM | 2.94 ± 0.4 µM | 2.42 ± 0.1 µM | – | – | – | – | – | Ki (EAAC1): 24.4 ± 2.5 µM
2 | O=C(O[C@@H]1CN[C@H](C(=O)O)C1)c1ccc(C(=O)c2ccccc2)cc1 [SN 12] | 15.4 ± 4.9 µM | 13.8 ± 2.7 µM | 6.66 ± 1.2 µM | 21.2 ± 4.5 µM | 21.4 ± 3.2 µM | – | – | – | – | – | Ki (hASCT1; apparent Ki in the absence of substrate, HEK293, mean ± SD, read-out: Ki hASCT1): 6.86 ± 1.1 µM

Now from value to molecule, other results behind:

Row | Ki (EAAT2) | Ki (EAAT5) | Ki (rASCT2 [1]; [5]) | Ki (EAAT1) | Ki (hASCT2 [2]; [6]) | Ki (hASCT1; [8]) | Competition Expt % block (given as a decimal): rASCT2 (rASCT2 [3]; 0.5 mM ala, decimal fraction) | Ki (rASCT2 [3]; 0.5 mM ala) | Competition Expt % block (given as a decimal): hASCT2 (hASCT2 [4]; 0.5 mM ala, decimal fraction) | Ki (hASCT2 [4]; 0.5 mM ala) | Structure (SMILES) | also measured
3 | – | – | – | – | – | 3.06 µM | – | – | – | – | O=C(OC[C@@]1(O)CN[C@H](C(=O)O)C1)c1ccc(-c2ccc(F)cc2)cc1 [SN58] | Competition Expt % block (given as a decimal): rASCT2 (rASCT2 [3]; 1 mM ala): full; Ki (rASCT2 [3]; 1 mM ala): 12.8 µM; Competition Expt % block (given as a decimal): hASCT2 (hASCT2 [4]; 1 mM ala): full; Ki (hASCT2 [4]; 1 mM ala): 19.2 µM; Ki All DNA: rASCT2 (rASCT2 [1]; [7]): Very Low; Ki All DNA: hASCT2 (hASCT2 [2]; [7]): Very Low
4 | – | – | – | – | – | 59.2 µM | 0.4 | 170 µM | 0.8 | 52.2 µM | O=C(OC[C@]1(O)CN[C@H](C(=O)O)C1)c1ccc(-c2ccccc2)cc1 [SN65] | Ki (rASCT2 [1]; Table 3, dihydroxyproline derivatives, read-out: Ki All DNA: rASCT2): 25.8 µM; Ki (hASCT2 [2]; Table 3, dihydroxyproline derivatives, read-out: Ki All DNA: hASCT2): 30.5 µM
5 | – | – | – | – | – | – | 0.5 | 12.9 µM | 0.5 | 20.3 µM | O=C(O[C@@]1(CO)CN[C@H](C(=O)O)C1)c1ccc(-c2ccccc2)cc1 [SN77] | –
